Laboratory results from ChEMBL document CHEMBL1201862, “PubChem BioAssay data set” (2004).
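Where inhibition never reached the appropriate level, the endpoint shown equals the highest concentration tested. Otherwise, values were interpolated linearly from a five-concentration, 48-hour dose response in 96-well plates. At the GI50, growth is halved.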 Activity calls are given as the source filed them. Cut-off read from the data, not from the text of the source: active = GI50 up to about 1.1 µM and inactive = higher.

How the values were obtained:
Assay in all cases: NCI tumour cell line growth inhibition, 48 h
SNB-78 = system: SNB-78
XF498 = system: XF498
DMS-273 = system: DMS-273
HOP-18 = system: HOP-18
M19-MEL = system: M19-MEL
RXF 631 = system: RXF 631
KM-20L2 = system: KM-20L2
DLD-1 = system: DLD-1
DMS-114 = system: DMS-114

| Structure (SMILES) | GI50 (SNB-78) | GI50 (XF498) | GI50 (DMS-273) | GI50 (HOP-18) | GI50 (M19-MEL) | GI50 (RXF 631) | GI50 (KM-20L2) | GI50 (DLD-1) | GI50 (DMS-114) |
| --- | --- | --- | --- | --- | --- | --- | --- | --- | --- |
| O=C1c2ccccc2C(=O)N1C/C=N/NS(=O)(=O)c1ccc2ccccc2c1 | > 100 µM (inactive) | > 100 µM (inactive) | > 100 µM (inactive) | > 100 µM (inactive) | > 100 µM (inactive) | > 100 µM (inactive) | > 100 µM (inactive) | > 100 µM (inactive) | – |
| CCc1cccc(C(C)C)c1C1C(=O)C(=O)N(c2nc3ccccc3s2)C(=O)C1=O | > 100 µM (inactive) | – | > 100 µM (inactive) | > 100 µM (inactive) | > 100 µM (inactive) | > 100 µM (inactive) | > 100 µM (inactive) | > 100 µM (inactive) | > 100 µM (inactive) |
| CN(C)c1nc(N(C)C)sc(=O)n1 | – | > 100 µM (inactive) | > 100 µM (inactive) | > 100 µM (inactive) | > 100 µM (inactive) | – | > 100 µM (inactive) | > 100 µM (inactive) | > 100 µM (inactive) |
| CCS/C(=N\c1ccccc1)SC | > 100 µM (inactive) | > 100 µM (inactive) | > 100 µM (inactive) | > 100 µM (inactive) | > 100 µM (inactive) | > 100 µM (inactive) | > 100 µM (inactive) | > 100 µM (inactive) | > 100 µM (inactive) |
| COc1cc2c(cc1OC)C(C(CBr)CBr)N(C1CCCC1)CC2 (stereo not given) | > 10 µM (inactive) | > 100 µM (inactive) | > 100 µM (inactive) | – | > 100 µM (inactive) | – | 1.46 µM (inactive) | > 100 µM (inactive) | – |
| CC(=O)NCc1c(C(N)=O)ncn1Cc1ccccc1 | > 100 µM (inactive) | > 100 µM (inactive) | > 100 µM (inactive) | > 100 µM (inactive) | > 100 µM (inactive) | > 100 µM (inactive) | > 100 µM (inactive) | – | > 100 µM (inactive) |
| O=Nc1ccc(O)c2ncccc12 | 2.43 µM (inactive) | – | 2.55 µM (inactive) | 11.3 µM (inactive) | 4.25 µM (inactive) | – | 23.9 µM (inactive) | 9.57 µM (inactive) | 3.9 µM (inactive) |
| C#C[C@@]1(O)CCCC2=CC(=O)C[C@]21C | – | > 100 µM (inactive) | – | > 100 µM (inactive) | > 100 µM (inactive) | – | – | > 100 µM (inactive) | > 100 µM (inactive) |
| CC1=C(CO)C(=O)O[C@@H]([C@@H](C)[C@H]2CC[C@H]3[C@@H]4C[C@H]5O[C@]56[C@@H](O)C=CC(=O)[C@]6(C)[C@H]4CC[C@]23C)C1 [WITHAFERIN A] | – | 1.43 µM (inactive) | 0.405 µM (active) | – | 1.5 µM (inactive) | – | 0.392 µM (active) | 0.303 µM (active) | 0.478 µM (active) |
| CCCN(CCC)C1=Nc2ccccc2-n2cnnc2C1 | > 100 µM (inactive) | > 100 µM (inactive) | > 100 µM (inactive) | – | > 100 µM (inactive) | – | > 100 µM (inactive) | – | > 100 µM (inactive) |
| C=C1C(=O)C=C2C=C3C(=O)C(C)(C)C[C@]3(O)C12C (stereo not given in full) | 7.74 µM (inactive) | 1.85 µM (inactive) | 5.92 µM (inactive) | – | 5.68 µM (inactive) | 16.4 µM (inactive) | – | 1.65 µM (inactive) | 1.1 µM (active) |
| C[N+](C)(C)CC1CCCCC1O (stereo not given) | > 100 µM (inactive) | – | > 100 µM (inactive) | 1.28 µM (inactive) | > 100 µM (inactive) | > 100 µM (inactive) | > 100 µM (inactive) | > 100 µM (inactive) | – |
| COC(=O)C[S+]([O-])c1ccccc1 (stereo not given) | 33.5 µM (inactive) | 76.7 µM (inactive) | 28.9 µM (inactive) | – | 30.5 µM (inactive) | – | – | 29.1 µM (inactive) | 20.8 µM (inactive) |
| O=C(OCc1nc2ccc(Br)cc2c(=O)n1-c1ccccc1)c1ccccc1O | > 100 µM (inactive) | 51.4 µM (inactive) | – | – | > 100 µM (inactive) | – | > 100 µM (inactive) | 67.1 µM (inactive) | – |
